Assay: gradient 5% acetonitrile 3 min, to 50% in 2 min, to 85% in 15 min, held 3 min, 100 µL/min
Conditions: column: Zorbax Extend-C18 2.1 x 50 mm; eluents: water / acetonitrile, 0.1% formic acid
Outline: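 Retention times come from adduct peaks that were picked computationally and then checked by hand. The standards, pure and pooled in mixtures of ~100 molecules, were run on a Zorbax Extend-C18 column (2.1 × 50 mm, 1.8 μm) at 100 μL/min with water and acetonitrile, each with 0.1% formic acid. Detection was by quadrupole time-of-flight mass spectrometry in positive and negative ionization mode, with a dead volume of 40 μL and a dwell volume of 900 μL.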

Compound: CS(=O)(=O)N1CCN(C(=O)CCc2csc(NC(=O)c3ccc(F)cc3)n2)CC1
- RP-LC retention time: 666 s

Compound: O=C(c1ccc(Br)o1)N1CC2CN(S(=O)(=O)c3ccccc3)CC(C1)O2
- RP-LC retention time: 781 s

Compound: CN1C(=O)c2ccccc2Oc2ccc(C(=O)N3CCCCC3)cc21
- RP-LC retention time: 807 s

Compound: O=C1CC(CNS(=O)(=O)c2cccc(C(F)(F)F)c2)CN1c1ccc(Cl)cc1 (stereo not given)
- RP-LC retention time: 893 s

Compound: CCCN(C)C(=O)C1c2ccccc2CC(=O)N1Cc1ccccc1 (stereo not given)
- RP-LC retention time: 828 s

Compound: CCCS(=O)(=O)c1nc2ccc(NS(=O)(=O)c3cc(C)ccc3C)cc2s1
- RP-LC retention time: 958 s

Compound: c1ccc(CCc2nc3nccc(-c4ccc5c(c4)OCCCO5)n3n2)cc1
- RP-LC retention time: 984 s

Compound: CC1CCCN(c2nccnc2SCC(=O)Nc2ccc(F)cc2Cl)C1 (stereo not given)
- RP-LC retention time: 1300 s

Compound: O=S(=O)(Nc1ccc(Cn2cncn2)cc1)c1cccc(Cl)c1
- RP-LC retention time: 716 s

Compound: CC1CCN(c2ccc(NC(=O)CN3C(=O)CN(C)C(=O)c4ccccc43)cc2)CC1
- RP-LC retention time: 671 s

Compound: COc1ccc(N2CC(c3nc(-c4cccs4)no3)CC2=O)cc1Cl (stereo not given)
- RP-LC retention time: 930 s

Compound: COc1ccc(Cl)cc1NC(=O)Cn1c(=O)n(-c2ccc(F)cc2)c(=O)c2c1cc(C)n2C
- RP-LC retention time: 938 s

Compound: Cc1ccc(CNC(=O)NCCC2CCN(S(=O)(=O)c3ccc(F)cc3)CC2)cc1
- RP-LC retention time: 896 s

Compound: Cn1nc(-c2nc(-c3cccc(F)c3)no2)c2c1CCN(C(=O)NC1CCCC1)C2
- RP-LC retention time: 957 s

Compound: Cc1ccc(NC(=O)Cn2c(N3CCOCC3)nc(C)cc2=O)cc1
- RP-LC retention time: 680 s

Compound: CCC(CC)COC(=O)c1[nH]c2c(c1C)C(=O)CC(c1ccc(OC)c(OC)c1)C2 (stereo not given)
- RP-LC retention time: 1140 s

Compound: Cc1cccc(N(C(=O)Nc2ccccc2C)C2=NCCC2)c1
- RP-LC retention time: 1100 s

Compound: CCn1cc(CN2CCC(N3C(=O)C4(CCCC4)C3c3ccccc3)CC2)cn1 (stereo not given)
- RP-LC retention time: 673 s

Compound: CCN1C=C(C(=O)OCc2cccc(F)c2)C(C)=NS1(=O)=O
- RP-LC retention time: 968 s

Compound: O=C(Cn1nc2c(cc1=O)CCCC2)Nc1ccc(Br)cc1
- RP-LC retention time: 747 s

Compound: COc1cc([C@@H]2c3cc4c(cc3[C@H](O)[C@@H](CO)[C@@H]2C(=O)NCCC2=CCCCC2)OCO4)cc(OC)c1OC
- RP-LC retention time: 781 s

Compound: CC(C)n1cnc2cc(CNC(=O)c3ccc4c(c3)OCO4)ccc21
- RP-LC retention time: 624 s

Compound: CCc1noc(-c2ccnc(-n3cnc(C(=O)NCC(C)C)c3)c2)n1
- RP-LC retention time: 983 s

Compound: Cc1nn2c(S(=O)(=O)N3CCN(C4CCCCC4)CC3)c(C)nc2s1
- RP-LC retention time: 608 s

Compound: Cc1ccc(Cl)cc1N1CCN(S(=O)(=O)c2nn(C)cc2C(=O)NCCN(C)C)CC1
- RP-LC retention time: 732 s

Compound: CC(C)CN1CCn2cc(S(=O)(=O)Nc3ccc(Cl)cc3)cc2C1=O
- RP-LC retention time: 848 s

Compound: CN(C)c1ccc(C(=O)Nc2cnc(N3CCOCC3)nc2)cc1
- RP-LC retention time: 729 s

Compound: COc1ccc(-c2noc(-c3ccc(NCC4CCCO4)nn3)n2)cc1 (stereo not given)
- RP-LC retention time: 782 s

Compound: COC(=O)c1c(NCCO)c2cc(F)ccc2[nH]c1=O
- RP-LC retention time: 590 s

Compound: O=C(NC1CCCCC1NC(=O)c1cccs1)c1cccs1 (stereo not given)
- RP-LC retention time: 728 s

Compound: Cc1ccc(F)cc1S(=O)(=O)N1CCN(c2cnn3c(C)nnc3c2)CC1
- RP-LC retention time: 616 s

Compound: CCCCCCCCCOc1ccc2[nH]cc(CCN)c2c1
- RP-LC retention time: 996 s

Compound: Cc1cccc(NC(=O)c2ccc(N3CCCC3)nn2)n1
- RP-LC retention time: 612 s

Compound: CCN1CCCC1CNC(=O)c1nc(-c2oc3ccc(OC)cc3c2C)no1 (stereo not given)
- RP-LC retention time: 682 s

Compound: CC1CCCC(NC(=O)CCn2cnc3onc(-c4ccc(F)cc4)c3c2=O)C1C (stereo not given)
- RP-LC retention time: 1050 s

Compound: CC(=O)c1cccc(NC(=O)Cn2c(-c3ccc(Cl)cc3)nc(C)cc2=O)c1
- RP-LC retention time: 1060 s

Compound: CC(C)n1c(=O)sc2cc(S(=O)(=O)N3CCC(C(=O)NCc4cccs4)CC3)ccc21
- RP-LC retention time: 885 s

Compound: CS(=O)(=O)N1CCC(C(=O)NCc2ccc(Cl)cc2)Oc2ccccc21 (stereo not given)
- RP-LC retention time: 1010 s

Compound: Cc1ccc(C)c(C(=O)Nc2cccn3c(C)nnc23)c1
- RP-LC retention time: 695 s

Compound: Cc1nc(-c2ccccc2)cc2nn(CC(=O)N3CCc4ccccc43)c(=O)n12
- RP-LC retention time: 966 s

Compound: CC(Cc1ccco1)NC(=O)c1ccc2c(c1)nc1n2CCCCC1 (stereo not given)
- RP-LC retention time: 620 s

Compound: Cc1cc(NC(=O)C2CCCN(C(=O)C3Sc4ccccc4NC3=O)C2)ccc1Br (stereo not given)
- RP-LC retention time: 901 s

Compound: O=C(Nc1ccc(F)cc1F)c1ccc(N2C(=O)CCC2=O)cc1
- RP-LC retention time: 671 s

Compound: O=C(CN1C(=O)CCC1=O)Nc1nnc(-c2ccc(Cl)s2)o1
- RP-LC retention time: 642 s

Compound: Cc1nc(CCNS(=O)(=O)c2ccc(Cl)cc2)no1
- RP-LC retention time: 769 s

Compound: Cc1cc2n(n1)CCCN2C(=O)CCC(=O)N1CCN(c2ccccc2)CC1
- RP-LC retention time: 678 s

Compound: Nc1cc(C2CCN(C(=O)c3cncc(Br)c3)CC2)no1
- RP-LC retention time: 620 s

Compound: Cc1nn(CC(=O)N2CCOCC2)c(=O)c2c(-n3cccc3)n(-c3ccc(F)cc3)nc12
- RP-LC retention time: 809 s

Compound: CCC(C(=O)Nc1ccc(-c2nc(Cn3nc(C)cc3C)c(C)o2)cc1)c1ccccc1 (stereo not given)
- RP-LC retention time: 1050 s

Compound: CC(=O)N1CCCc2cc(S(=O)(=O)N3CCC(C(=O)N4CCN(C)CC4)CC3)ccc21
- RP-LC retention time: 624 s

Compound: O=C(Nc1cc(-c2ccccn2)no1)c1ccoc1
- RP-LC retention time: 713 s

Compound: Cn1cc(CCNC(=O)c2ccccc2C(F)(F)F)c2cccnc21
- RP-LC retention time: 700 s

Compound: CC1CCN(c2nn(CC(=O)Nc3cccc(Cl)c3)c(=O)c3ccccc23)CC1
- RP-LC retention time: 1210 s

Compound: COc1ccccc1N1CCN(C(=O)c2ccc(OCc3nc(C4CC4)cs3)cc2)CC1
- RP-LC retention time: 911 s

Compound: N#Cc1cccc(NC(=O)C2CCN(S(=O)(=O)c3cc(C(=O)N4CCCC4)cs3)CC2)c1
- RP-LC retention time: 995 s

Compound: Cc1c(-c2ccnc(N3CCCCC3)n2)cnc2nc(-c3ccc(Cl)cc3)nn12
- RP-LC retention time: 1400 s

Compound: COc1ccc(NC(=O)c2cccn2Cc2noc(C)n2)cc1Cl
- RP-LC retention time: 859 s

Compound: Cc1csc(C(=O)NCCC(O)C(C)(C)C)c1 (stereo not given)
- RP-LC retention time: 718 s

Compound: CSc1ccc(CNC(=O)c2cc3c(=O)n(Cc4ccccc4)ccc3nc2C)cc1
- RP-LC retention time: 870 s

Compound: Cc1ccc(C)c(NC(=O)Cn2nc3n(c2=O)CCCCC3)c1
- RP-LC retention time: 722 s

Compound: CCc1ccc(-n2nc(CO)c(C(=O)NCc3ccc4c(c3)OCO4)n2)cc1
- RP-LC retention time: 1030 s

Compound: CC(C)CNC(=O)c1ccc(-c2nc3cccnc3n2C2CCCCC2)cc1
- RP-LC retention time: 926 s

Compound: CC(CN1CC(=O)NC(=O)C1)N1CC(=O)NC(=O)C1 (stereo not given)
- RP-LC retention time: 530 s

Compound: COc1ccc(S(=O)(=O)N2CCC(C(=O)Nc3ncnc4c3CCC4)CC2)cc1
- RP-LC retention time: 664 s

Compound: CC(NC(=O)Nc1cccc(Br)c1)C(=O)N1CCc2ccccc21 (stereo not given)
- RP-LC retention time: 950 s

Compound: CCN1C=C(C(=O)OCc2ccccc2Cl)C(C)=NS1(=O)=O
- RP-LC retention time: 1010 s

Compound: Cc1ncoc1C(=O)N1CCC(c2noc(-c3cnccn3)n2)C1 (stereo not given)
- RP-LC retention time: 620 s

Compound: CCn1c(=O)c(N2CCC(C(=O)NCCCN3CCCC(C)C3)CC2)nc2cccnc21 (stereo not given)
- RP-LC retention time: 640 s

Compound: COCC(=O)Nc1nnc(SCc2nnc(-c3ccc4c(c3)OCO4)o2)s1
- RP-LC retention time: 717 s

Compound: Cc1ccc(-c2cc3c(=O)n(Cc4nc(-c5ccc6c(c5)OCO6)no4)ncn3n2)c(C)c1
- RP-LC retention time: 1170 s

Compound: Cc1sc2cc(C(=O)N(C)C)[nH]c2c1CN1CCCCC1
- RP-LC retention time: 606 s

Compound: O=C(NCc1ccc(Cl)cc1)C1CC(=O)N(c2n[nH]c3cccc(F)c23)C1 (stereo not given)
- RP-LC retention time: 833 s

Compound: CCc1cccc(NC(=O)CSc2cc(N3CCN(c4ccc(OC)cc4)CC3)ncn2)c1
- RP-LC retention time: 1040 s

Compound: Cc1cc(OCC(=O)N2CCN(c3ccccn3)CC2)nc2c1c(C)nn2-c1ccccc1
- RP-LC retention time: 693 s

Compound: CCN1CCN(CCNC(=O)c2nc3ccccn3c2-c2ccc(Cl)cc2)CC1
- RP-LC retention time: 782 s

Compound: CCCn1ccc2sc(C)c(C(=O)NCc3ccccc3OCC)c2c1=O
- RP-LC retention time: 982 s

Compound: CC(C)C(=O)Nc1ccc(-n2cnc(C(=O)NCc3ccccc3)c2)nc1
- RP-LC retention time: 738 s

Compound: CCOC(=O)Cc1ccc(NC(=O)Nc2cccn3c(C)nnc23)cc1
- RP-LC retention time: 723 s

Compound: Cn1cnc(S(=O)(=O)N2CCCN(S(=O)(=O)Cc3ccccc3)CCNC(=O)CC2c2ccccc2)c1 (stereo not given)
- RP-LC retention time: 711 s

Compound: Cc1ccccc1-c1nc(-c2ccc3nncn3c2)no1
- RP-LC retention time: 872 s

Compound: CCCN1CCN(CCNC(=O)CCc2cc3ccc(C)cc3[nH]c2=O)CC1
- RP-LC retention time: 571 s

Compound: CC(C)Cc1ccc(S(=O)(=O)N2CC(c3nc(-c4ccncc4)nn3C)C2)cc1
- RP-LC retention time: 787 s

Compound: CCOc1ccc(NC(=O)N2CCC[C@@H]2C(=O)NCc2csc(-c3ccccc3)n2)cc1
- RP-LC retention time: 808 s

Compound: Cn1nc(C(=O)Nc2ccccc2)c2c1CCN(C(=O)Nc1ccc(Br)cc1F)C2
- RP-LC retention time: 956 s

Compound: CCCn1cnc2cc(CNC(=O)CCc3ccccc3)ccc21
- RP-LC retention time: 640 s

Compound: Cc1csc(-c2cc(S(=O)(=O)N3CCOCC3)c(C)n2C)n1
- RP-LC retention time: 824 s

Compound: O=c1n(Cc2c(F)cccc2Cl)nc2c(S(=O)(=O)N3CCCC3)cccn12
- RP-LC retention time: 840 s

Compound: Cc1ccc(-n2nc(N3CCCC(C(=O)Nc4ccc(F)cc4F)C3)ccc2=O)cc1Cl (stereo not given)
- RP-LC retention time: 1020 s

Compound: Cn1cccc(C(=O)Nc2nc3c(s2)CN(S(=O)(=O)C2CC2)CC3)c1=O
- RP-LC retention time: 645 s

Compound: CCOc1ccc(NC(=O)c2[nH]c3cc(C)sc3c2CN2CCOCC2)cc1
- RP-LC retention time: 1160 s

— the METLIN SMRT retention time set (Domingo-Almenara et al. 2019)
